What was measured:
[1] = target: NT-3 growth factor receptor (Homo sapiens) (UniProt Q16288); assay: Inhibition of recombinant human TrkC (510 to end residues) at 1 uM using GEEPLYWSFPAKKK as substrate after 40 mins in presence of [gamma-33P]ATP by scintillation counting method
[2] = target: Platelet-derived growth factor receptor alpha (Homo sapiens) (UniProt P16234); assay: Inhibition of recombinant human PDGFRalpha (550 to end residues) at 1 uM using poly(Glu,Tyr) 4:1 as substrate after 40 mins in presence of [gamma-33P]ATP by scintillation counting method
[3] = target: Phosphatidylinositol 4,5-bisphosphate 3-kinase catalytic subunit gamma isoform (Homo sapiens) (UniProt P48736); assay: Inhibition of recombinant full-length human p120g at 1 uM using phosphatidylinositol-4,5-bisphosphate as substrate after 40 mins in presence of [gamma-33P]ATP by scintillation counting method
[4] = target: Serine/threonine-protein kinase Sgk1 (Homo sapiens) (UniProt O00141); assay: Inhibition of recombinant human SGK (60 to end residues) at 1 uM using GRPRTSSFAEGKK as substrate after 40 mins in presence of [gamma-33P]ATP by scintillation counting method
[5] = target: Activin receptor type-1B (Homo sapiens) (UniProt P36896); assay: Inhibition of recombinant human ALK4 (150 to end residues) at 1 uM using casein as substrate after 40 mins in presence of [gamma-33P]ATP by scintillation counting method
[6] = target: Serine/threonine-protein kinase 35 (Homo sapiens) (UniProt Q8TDR2); assay: Inhibition of recombinant full-length human CLIK1 at 1 uM using RSRSRSRSRSRSRSR as substrate after 40 mins in presence of [gamma-33P]ATP by scintillation counting method
[7] = test system: Serine/threonine-protein kinase Chk2 (Homo sapiens), O96017 [R145W]; assay: Inhibition of recombinant human CHK2 R145W mutant (5 to end residues) at 1 uM using KKKVSRSGLYRSPSMPENLNRPR as substrate after 40 mins in presence of [gamma-33P]ATP by scintillation counting method
[8] = target: Tyrosine-protein kinase receptor UFO (Homo sapiens) (UniProt P30530); assay: Inhibition of recombinant human Axl (473 to end residues) at 1 uM using KKSRGDYMTMQIG as substrate after 40 mins in presence of [gamma-33P]ATP by scintillation counting method
[9] = target: RAC-alpha serine/threonine-protein kinase (Homo sapiens) (UniProt P31749); assay: Inhibition of recombinant full-length human PKBalpha at 1 uM using GRPRTSSFAEGKK as substrate after 40 mins in presence of [gamma-33P]ATP by scintillation counting method
[10] = target: TGF-beta receptor type-1 (Homo sapiens) (UniProt P36897); assay: Inhibition of recombinant activated human TGFBR1 (200 to end residues) at 1 uM using casein as substrate after 40 mins in presence of [gamma-33P]ATP by scintillation counting method
[11] = target: Activin receptor type-2A (Homo sapiens) (UniProt P27037); assay: Inhibition of recombinant human ACTR2 (162 to end residues) at 1 uM using casein as substrate after 120 mins in presence of [gamma-33P]ATP by scintillation counting method
[12] = target: G protein-coupled receptor kinase 6 (Homo sapiens) (UniProt P43250); assay: Inhibition of recombinant full-length human GRK6 at 1 uM using casein as substrate after 40 mins in presence of [gamma-33P]ATP by scintillation counting method
[13] = target: PI3-kinase p110-delta/p85-alpha (Homo sapiens) (UniProt P27986+O00329); assay: Inhibition of recombinant full-length human p110d/p85a at 1 uM using phosphatidylinositol 4,5-bisphosphate as substrate after 40 mins in presence of [gamma-33P]ATP by scintillation counting method; assay type: protein-complex assay
[14] = test system: Mast/stem cell growth factor receptor Kit (Homo sapiens), P10721 [D816V]; assay: Inhibition of recombinant human cKit D816V mutant (544 to end residues) at 1 uM using poly(Glu,Tyr) 4:1 as substrate after 40 mins in presence of [gamma-33P]ATP by scintillation counting method
[15] = target: CDK12/Cyclin K (Homo sapiens) (UniProt O75909+Q9NYV4); assay: Inhibition of recombinant full-length human CDK12/Cyclin K at 1 uM using RSRSRSRSRSRSRSR as substrate after 120 mins in presence of [gamma-33P]ATP by scintillation counting method; assay type: protein-complex assay
[16] = target: SRSF protein kinase 3 (Homo sapiens) (UniProt Q9UPE1); assay: Inhibition of recombinant full-length human MSSK1 at 1 uM using ERMRPRKRQGSVRRRV as substrate after 40 mins in presence of [gamma-33P]ATP by scintillation counting method
[17] = target: MAP/microtubule affinity-regulating kinase 3 (Homo sapiens) (UniProt P27448); assay: Inhibition of recombinant full-length human MARK3 at 1 uM using KKKVSRSGLYRSPSMPENLNRPR as substrate after 40 mins in presence of [gamma-33P]ATP by scintillation counting method
[18] = target: Protein kinase C iota type (Homo sapiens) (UniProt P41743); assay: Inhibition of recombinant full-length human PKCiota at 1 uM using ERMRPRKRQGSVRRRV as substrate after 40 mins in presence of [gamma-33P]ATP by scintillation counting method
[19] = target: Serine/threonine-protein kinase BRSK2 (Homo sapiens) (UniProt Q8IWQ3); assay: Inhibition of recombinant human BrSK2 (2 to end residues) at 1 uM using KKLNRTLSFAEPG as substrate after 40 mins in presence of [gamma-33P]ATP by scintillation counting method
[20] = target: Tyrosine-protein kinase Lyn (Homo sapiens) (UniProt P07948); assay: Inhibition of recombinant full-length human Lyn at 1 uM using poly(Glu,Tyr) 4:1 as substrate after 40 mins in presence of [gamma-33P]ATP by scintillation counting method
[21] = target: Casein kinase II subunit alpha (Homo sapiens) (UniProt P68400); assay: Inhibition of recombinant full-length human CK2 at 1 uM using RRRDDDSDDD as substrate after 40 mins in presence of [gamma-33P]ATP by scintillation counting method
[22] = target: Receptor tyrosine-protein kinase erbB-2 (Homo sapiens) (UniProt P04626); assay: Inhibition of recombinant human ErbB2 (676 to end residues) at 1 uM using poly(Glu,Tyr) 4:1 as substrate after 40 mins in presence of [gamma-33P]ATP by scintillation counting method
[23] = test system: Angiopoietin-1 receptor (Homo sapiens), Q02763 [R849W]; assay: Inhibition of recombinant activated human Tie2 R849W mutant (771 to end residues) at 1 uM using EFPIYDFLPAKKK as substrate after 40 mins in presence of [gamma-33P]ATP by scintillation counting method
[24] = target: Activated CDC42 kinase 1 (Homo sapiens) (UniProt Q07912); assay: Inhibition of recombinant human ACK1 (1 to 389 residues) at 1 uM using EFPIYDFLPAKKK as substrate after 40 mins in presence of [gamma-33P]ATP by scintillation counting method

Sequence of TGF-beta receptor type-1 (Homo sapiens) (P36897 whole entry): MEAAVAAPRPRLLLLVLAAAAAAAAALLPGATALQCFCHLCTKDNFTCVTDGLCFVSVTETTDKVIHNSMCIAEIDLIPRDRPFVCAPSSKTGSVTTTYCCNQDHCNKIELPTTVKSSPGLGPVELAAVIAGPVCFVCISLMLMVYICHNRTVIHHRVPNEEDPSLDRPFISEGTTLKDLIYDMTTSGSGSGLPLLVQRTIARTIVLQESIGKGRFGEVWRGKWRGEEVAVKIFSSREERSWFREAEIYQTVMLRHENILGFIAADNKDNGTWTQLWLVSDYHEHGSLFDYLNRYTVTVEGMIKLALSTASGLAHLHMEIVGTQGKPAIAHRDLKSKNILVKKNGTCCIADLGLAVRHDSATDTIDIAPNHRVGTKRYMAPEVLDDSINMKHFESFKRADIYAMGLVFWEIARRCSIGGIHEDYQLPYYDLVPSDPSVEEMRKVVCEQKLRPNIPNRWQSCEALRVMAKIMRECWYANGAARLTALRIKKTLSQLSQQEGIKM
Sequence of Tyrosine-protein kinase receptor UFO (Homo sapiens) (P30530 whole entry): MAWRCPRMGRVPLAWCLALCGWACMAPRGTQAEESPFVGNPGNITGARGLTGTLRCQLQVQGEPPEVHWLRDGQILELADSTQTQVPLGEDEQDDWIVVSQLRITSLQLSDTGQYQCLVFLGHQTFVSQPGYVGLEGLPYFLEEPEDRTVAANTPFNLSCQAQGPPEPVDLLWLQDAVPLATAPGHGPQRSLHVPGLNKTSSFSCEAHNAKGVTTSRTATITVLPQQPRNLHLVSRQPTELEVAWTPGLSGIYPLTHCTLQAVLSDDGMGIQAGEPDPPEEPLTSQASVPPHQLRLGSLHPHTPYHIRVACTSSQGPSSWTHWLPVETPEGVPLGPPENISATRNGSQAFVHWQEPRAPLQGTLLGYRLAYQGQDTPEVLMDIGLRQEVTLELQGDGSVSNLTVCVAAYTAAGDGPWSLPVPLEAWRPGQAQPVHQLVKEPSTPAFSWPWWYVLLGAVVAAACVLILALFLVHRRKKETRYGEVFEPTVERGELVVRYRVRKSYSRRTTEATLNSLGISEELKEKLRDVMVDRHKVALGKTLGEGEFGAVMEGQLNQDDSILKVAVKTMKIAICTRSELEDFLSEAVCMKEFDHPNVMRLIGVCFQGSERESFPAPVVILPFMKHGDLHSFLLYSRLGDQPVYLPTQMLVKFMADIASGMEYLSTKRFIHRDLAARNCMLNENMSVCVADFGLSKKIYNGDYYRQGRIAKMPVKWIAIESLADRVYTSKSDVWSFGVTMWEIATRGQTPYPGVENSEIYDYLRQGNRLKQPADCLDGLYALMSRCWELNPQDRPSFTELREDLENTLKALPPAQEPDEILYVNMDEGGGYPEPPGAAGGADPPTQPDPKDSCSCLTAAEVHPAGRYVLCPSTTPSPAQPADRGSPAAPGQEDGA
Sequence of SRSF protein kinase 3 (Homo sapiens) (Q9UPE1 whole entry): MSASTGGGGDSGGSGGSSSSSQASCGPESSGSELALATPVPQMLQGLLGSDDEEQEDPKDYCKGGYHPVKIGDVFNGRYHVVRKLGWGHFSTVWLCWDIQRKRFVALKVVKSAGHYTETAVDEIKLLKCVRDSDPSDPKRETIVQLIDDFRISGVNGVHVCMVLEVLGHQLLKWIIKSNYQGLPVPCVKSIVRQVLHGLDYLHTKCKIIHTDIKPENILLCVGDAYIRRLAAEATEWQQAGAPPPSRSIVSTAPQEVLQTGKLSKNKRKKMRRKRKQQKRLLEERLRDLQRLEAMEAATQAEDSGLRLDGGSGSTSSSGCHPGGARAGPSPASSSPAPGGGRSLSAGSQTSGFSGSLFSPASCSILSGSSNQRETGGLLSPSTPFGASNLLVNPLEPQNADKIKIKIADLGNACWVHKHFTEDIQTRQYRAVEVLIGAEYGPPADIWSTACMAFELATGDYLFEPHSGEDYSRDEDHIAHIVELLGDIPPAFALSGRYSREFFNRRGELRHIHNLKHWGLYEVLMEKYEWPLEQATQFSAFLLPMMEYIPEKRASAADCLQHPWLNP
Sequence of RAC-alpha serine/threonine-protein kinase (Homo sapiens) (P31749 whole entry): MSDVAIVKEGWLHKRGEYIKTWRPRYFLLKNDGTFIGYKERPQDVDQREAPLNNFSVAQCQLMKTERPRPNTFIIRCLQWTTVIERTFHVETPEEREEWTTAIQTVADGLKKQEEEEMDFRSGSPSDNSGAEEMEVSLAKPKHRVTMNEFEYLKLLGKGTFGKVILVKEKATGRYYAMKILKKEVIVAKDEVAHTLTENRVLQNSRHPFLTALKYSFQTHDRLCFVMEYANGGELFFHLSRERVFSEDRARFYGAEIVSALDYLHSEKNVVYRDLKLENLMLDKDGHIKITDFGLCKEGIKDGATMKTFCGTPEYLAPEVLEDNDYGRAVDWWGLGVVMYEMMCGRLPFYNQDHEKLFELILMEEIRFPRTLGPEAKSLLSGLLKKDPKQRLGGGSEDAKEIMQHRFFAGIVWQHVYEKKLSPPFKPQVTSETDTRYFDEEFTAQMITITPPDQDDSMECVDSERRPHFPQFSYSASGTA
Sequence of Activin receptor type-2A (Homo sapiens) (P27037 whole entry): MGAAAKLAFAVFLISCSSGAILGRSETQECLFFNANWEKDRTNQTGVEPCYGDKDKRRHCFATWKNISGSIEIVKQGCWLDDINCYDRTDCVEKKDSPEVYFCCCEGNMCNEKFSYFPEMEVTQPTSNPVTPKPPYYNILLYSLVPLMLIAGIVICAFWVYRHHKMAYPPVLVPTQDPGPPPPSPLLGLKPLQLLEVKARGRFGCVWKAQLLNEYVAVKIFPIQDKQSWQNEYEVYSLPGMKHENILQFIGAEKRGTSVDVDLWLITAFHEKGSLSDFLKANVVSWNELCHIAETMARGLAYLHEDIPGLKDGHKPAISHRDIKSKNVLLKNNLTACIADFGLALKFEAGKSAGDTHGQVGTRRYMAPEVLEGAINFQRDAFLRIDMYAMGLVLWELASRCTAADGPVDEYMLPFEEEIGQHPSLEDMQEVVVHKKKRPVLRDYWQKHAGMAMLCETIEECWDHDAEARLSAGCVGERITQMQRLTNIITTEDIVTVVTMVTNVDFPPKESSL
Sequence of MAP/microtubule affinity-regulating kinase 3 (Homo sapiens) (P27448 whole entry, looked up): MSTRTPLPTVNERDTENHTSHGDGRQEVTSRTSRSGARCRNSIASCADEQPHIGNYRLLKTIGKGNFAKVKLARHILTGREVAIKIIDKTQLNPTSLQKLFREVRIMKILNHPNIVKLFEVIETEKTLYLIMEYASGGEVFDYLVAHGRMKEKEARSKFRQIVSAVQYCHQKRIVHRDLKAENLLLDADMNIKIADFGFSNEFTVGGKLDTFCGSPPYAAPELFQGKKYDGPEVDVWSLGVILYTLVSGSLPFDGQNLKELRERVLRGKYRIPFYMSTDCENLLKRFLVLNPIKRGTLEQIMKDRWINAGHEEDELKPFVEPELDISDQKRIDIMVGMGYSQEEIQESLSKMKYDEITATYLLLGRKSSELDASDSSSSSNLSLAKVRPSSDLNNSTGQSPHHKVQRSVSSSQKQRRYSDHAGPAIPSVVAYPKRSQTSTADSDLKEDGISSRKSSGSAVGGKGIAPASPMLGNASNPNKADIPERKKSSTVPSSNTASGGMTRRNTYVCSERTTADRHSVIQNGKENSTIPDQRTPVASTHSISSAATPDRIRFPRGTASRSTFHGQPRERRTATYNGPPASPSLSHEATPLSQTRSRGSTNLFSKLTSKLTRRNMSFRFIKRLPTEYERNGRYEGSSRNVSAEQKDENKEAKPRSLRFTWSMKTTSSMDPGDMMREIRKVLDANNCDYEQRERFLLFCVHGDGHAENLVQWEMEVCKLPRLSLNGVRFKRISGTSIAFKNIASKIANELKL
Sequence of Platelet-derived growth factor receptor alpha (Homo sapiens) (P16234 whole entry, canonical isoform): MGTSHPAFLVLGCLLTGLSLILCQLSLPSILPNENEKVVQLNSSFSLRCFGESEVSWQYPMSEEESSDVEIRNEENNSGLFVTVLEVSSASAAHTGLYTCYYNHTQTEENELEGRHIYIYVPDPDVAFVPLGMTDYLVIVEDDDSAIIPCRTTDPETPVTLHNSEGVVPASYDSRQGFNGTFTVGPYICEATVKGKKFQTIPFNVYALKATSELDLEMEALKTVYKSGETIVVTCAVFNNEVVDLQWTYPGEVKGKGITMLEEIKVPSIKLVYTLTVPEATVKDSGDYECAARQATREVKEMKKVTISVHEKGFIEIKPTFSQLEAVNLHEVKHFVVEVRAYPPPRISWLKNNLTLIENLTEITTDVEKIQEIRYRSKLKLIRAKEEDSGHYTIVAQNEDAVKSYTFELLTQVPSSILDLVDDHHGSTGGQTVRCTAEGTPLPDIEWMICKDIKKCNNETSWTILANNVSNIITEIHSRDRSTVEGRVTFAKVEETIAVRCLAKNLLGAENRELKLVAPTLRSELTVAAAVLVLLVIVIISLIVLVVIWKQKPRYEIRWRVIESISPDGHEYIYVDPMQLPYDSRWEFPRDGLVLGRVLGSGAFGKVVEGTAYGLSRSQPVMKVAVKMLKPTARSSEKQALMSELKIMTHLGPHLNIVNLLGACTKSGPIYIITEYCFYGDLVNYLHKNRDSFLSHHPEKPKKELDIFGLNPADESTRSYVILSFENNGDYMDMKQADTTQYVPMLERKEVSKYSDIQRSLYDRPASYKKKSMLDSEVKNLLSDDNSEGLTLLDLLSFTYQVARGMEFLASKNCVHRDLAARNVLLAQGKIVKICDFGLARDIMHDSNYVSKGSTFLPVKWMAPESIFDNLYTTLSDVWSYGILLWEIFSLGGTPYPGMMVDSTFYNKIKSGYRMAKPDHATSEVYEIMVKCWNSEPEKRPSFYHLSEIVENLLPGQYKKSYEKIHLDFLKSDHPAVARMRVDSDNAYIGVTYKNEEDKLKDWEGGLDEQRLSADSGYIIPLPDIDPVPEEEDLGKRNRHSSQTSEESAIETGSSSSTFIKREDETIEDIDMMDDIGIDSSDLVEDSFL

CS(=O)(=O)c1ccc(-n2nc(-c3cnc4[nH]ccc4c3)c3c(N)ncnc32)cc1
inhibition [1]: 2%
inhibition [2]: -6%
inhibition [3]: 10%
inhibition [4]: 2%
inhibition [5]: 80%
inhibition [6]: 3%
inhibition [7]: 4%
inhibition [8]: 9%
inhibition [9]: -1%
inhibition [10]: 76%
inhibition [11]: 6%
inhibition [12]: -3%
inhibition [13]: 42%
inhibition [14]: -2%
inhibition [15]: -5%
inhibition [16]: -8%
inhibition [17]: 4%
inhibition [18]: 5%
inhibition [19]: 3%
inhibition [20]: 40%
inhibition [21]: 2%
inhibition [22]: 6%
inhibition [23]: 1%
inhibition [24]: 44%

From ChEMBL document CHEMBL4190187, “Discovery of pyrazolopyrimidine derivatives as novel inhibitors of ataxia telangiectasia and rad3 related protein (ATR)” (Bioorg Med Chem Lett, 2017)
